According to PubChem BioAssay (NCI):
Where “and” joins values, the source holds several entries; their conditions need not be identical. Equal values may be shown once.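 Protocol summary: plate cells (96-well), add compound at 5 concentrations, incubate 48 h, interpolate endpoints linearly. At the GI50, growth is halved. TGI denotes the concentration required for complete inhibition of growth.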

What was measured:
Test in all cases: NCI tumour cell line growth inhibition, 48 h
MDA-N = test system: MDA-N
LXFL 529 NSCLC = test system: LXFL 529 NSCLC
DMS 273 small cell lung = test system: DMS 273 small cell lung
DLD-1 colon = test system: DLD-1 colon
DMS 114 small cell lung = test system: DMS 114 small cell lung
M19-MEL melanoma = test system: M19-MEL melanoma
HOP-18 NSCLC = test system: HOP-18 NSCLC
KM20L2 colon = test system: KM20L2 colon
RXF-631 renal = test system: RXF-631 renal

CC[C@@]1(O)C(=O)OCc2c1cc1n(c2=O)Cc2cc3c(NC(=O)CN)cccc3nc2-1
TGI (MDA-N): 46.7 µM

C[Si]12OCCCN(CCO1)CCO2
TGI (LXFL 529 NSCLC): > 100 µM
TGI (DMS 273 small cell lung): > 100 µM
TGI (DLD-1 colon): > 100 µM
TGI (DMS 114 small cell lung): > 100 µM
TGI (M19-MEL melanoma): > 100 µM

NC1=C(Cl)C(=O)c2ccccc2C1=O
TGI (LXFL 529 NSCLC): 25.2 µM
TGI (DMS 273 small cell lung): 18.9 µM
TGI (DLD-1 colon): 37.9 µM
TGI (DMS 114 small cell lung): 13.4 µM
TGI (M19-MEL melanoma): 1.76 µM
TGI (MDA-N): 3.19 µM
TGI (HOP-18 NSCLC): 22 µM
TGI (KM20L2 colon): 28 µM

NC(=O)NCCSC1CCCCC1O (stereo unspecified)
TGI (MDA-N): > 100 µM

CO/C(=N\N=C\c1cccc(C(F)(F)F)c1)c1ccncc1
GI50 (MDA-N): 3.25 µM
TGI (MDA-N): 5.17 µM and 32.5 µM

Cn1c(=O)oc2cc(C3CCC(=O)N3Cc3ccc(Cl)cc3)ccc21 (stereo unspecified)
TGI (LXFL 529 NSCLC): > 100 µM
TGI (DMS 273 small cell lung): > 100 µM
TGI (DLD-1 colon): > 100 µM
TGI (DMS 114 small cell lung): > 100 µM
TGI (M19-MEL melanoma): > 100 µM
TGI (HOP-18 NSCLC): > 100 µM
TGI (KM20L2 colon): > 100 µM

Cc1cc2c(cc1Br)C1(C)CCC(C)C1(C)O2 (stereo unspecified)
TGI (LXFL 529 NSCLC): > 100 µM
TGI (DMS 273 small cell lung): 50.4 µM
TGI (DLD-1 colon): > 100 µM
TGI (DMS 114 small cell lung): 52 µM
TGI (M19-MEL melanoma): 70.1 µM
TGI (HOP-18 NSCLC): > 100 µM
TGI (KM20L2 colon): > 100 µM

Cc1ccc2nc(N/N=C/c3cccc(C)n3)cc(C)c2c1
TGI (MDA-N): 32.5 µM

O=C(NC1(C(=O)O)CC1c1ccccc1)c1ccccc1 (stereo unspecified)
TGI (MDA-N): > 100 µM

CNC(=O)OCc1[nH]ccc2c(C)c3nc4ccc(OC)cc4c3cc12
TGI (LXFL 529 NSCLC): > 100 µM
TGI (DMS 273 small cell lung): > 100 µM
TGI (DLD-1 colon): > 100 µM
TGI (M19-MEL melanoma): > 100 µM
TGI (HOP-18 NSCLC): 34.1 µM
TGI (KM20L2 colon): > 27.5 µM

CCOC(=O)/C(=C\c1ccc(F)cc1)C(C)=O
TGI (MDA-N): > 100 µM

Cc1cc(NC(=O)NC(=O)c2ccccc2NC(=O)CN)ccc1Oc1ncc(Br)cn1
TGI (LXFL 529 NSCLC): 75 µM
TGI (DMS 273 small cell lung): 38.1 µM
TGI (DLD-1 colon): 4.62 µM
TGI (DMS 114 small cell lung): 75 µM
GI50 (MDA-N): 0.0271 µM
TGI (MDA-N): 1.1 µM and 0.178 µM
TGI (KM20L2 colon): 18.6 µM

O=C(O)CCCNS(=O)(=O)c1ccc2ccccc2c1
TGI (LXFL 529 NSCLC): > 100 µM
TGI (DMS 273 small cell lung): > 100 µM
TGI (RXF-631 renal): > 100 µM
TGI (DLD-1 colon): > 100 µM
TGI (M19-MEL melanoma): > 100 µM
TGI (HOP-18 NSCLC): > 100 µM
TGI (KM20L2 colon): > 100 µM

CC(=O)O[C@H]1CC[C@@]2(C)C(=CC[C@@H]3C2CC[C@]2(C)Nc4[nH]ncc4CC32)C1 (stereo partly specified)
TGI (LXFL 529 NSCLC): 36.4 µM
TGI (DMS 273 small cell lung): 31.8 µM
TGI (RXF-631 renal): 34.7 µM
TGI (DLD-1 colon): 93.8 µM
TGI (DMS 114 small cell lung): 34.2 µM
TGI (M19-MEL melanoma): 60.1 µM
TGI (KM20L2 colon): 85.2 µM

CC(=O)OC12CC(C)C3(O)C4C=C(C)C(=O)[C@@]4(O)CC(CO)=C[C@H]3C1C2(C)C (stereo partly specified)
GI50 (MDA-N): 0.239 µM

CN(CCN(C)C(=O)CCOS(C)(=O)=O)C(=O)CCOS(C)(=O)=O
TGI (LXFL 529 NSCLC): > 100 µM
TGI (DMS 273 small cell lung): > 100 µM
TGI (DLD-1 colon): > 100 µM
TGI (DMS 114 small cell lung): > 100 µM
TGI (HOP-18 NSCLC): > 100 µM
TGI (KM20L2 colon): > 100 µM

CCOC(=O)c1cnc2cc3cccccc3n2c1=O
TGI (LXFL 529 NSCLC): > 100 µM
TGI (DMS 273 small cell lung): > 100 µM
TGI (DLD-1 colon): > 100 µM
TGI (DMS 114 small cell lung): > 100 µM
TGI (KM20L2 colon): > 100 µM

Clc1cc(Cl)cc(Nc2nc3ccccc3nc2-c2cccs2)c1
TGI (LXFL 529 NSCLC): > 100 µM
TGI (DMS 273 small cell lung): 27.2 µM
TGI (RXF-631 renal): 31.8 µM
TGI (DLD-1 colon): > 100 µM
TGI (M19-MEL melanoma): 88.2 µM
TGI (HOP-18 NSCLC): 88.8 µM

COc1ccc2c(c1)CCCC1C3=NCCC3(C)CSC21 (stereo unspecified)
TGI (LXFL 529 NSCLC): > 100 µM
TGI (DMS 273 small cell lung): > 100 µM
TGI (DMS 114 small cell lung): > 100 µM
TGI (M19-MEL melanoma): > 100 µM
TGI (HOP-18 NSCLC): > 100 µM
TGI (KM20L2 colon): 72.7 µM

CCCCCCCCCCCCCCCCn1cc[n+](Cc2ccccc2)c1C
GI50 (MDA-N): 0.328 µM
TGI (MDA-N): 1.32 µM

O=CN1CCN(C=S)CC1
TGI (LXFL 529 NSCLC): > 100 µM
TGI (DMS 273 small cell lung): > 100 µM
TGI (RXF-631 renal): > 100 µM
TGI (DLD-1 colon): > 100 µM
TGI (DMS 114 small cell lung): > 100 µM
TGI (M19-MEL melanoma): > 100 µM
TGI (KM20L2 colon): > 100 µM

NC(=O)c1c2c(cc3c(=O)c4ccccc4[nH]c13)CCCC2
TGI (LXFL 529 NSCLC): > 100 µM
TGI (DMS 273 small cell lung): > 100 µM
TGI (RXF-631 renal): > 100 µM
TGI (DLD-1 colon): > 100 µM
TGI (DMS 114 small cell lung): > 100 µM
TGI (M19-MEL melanoma): > 100 µM
TGI (HOP-18 NSCLC): > 100 µM
TGI (KM20L2 colon): > 100 µM

CCC[CH2][Sn]1([CH2]CCC)[O]C(=O)CN=Cc2ccccc2[O]1
GI50 (LXFL 529 NSCLC): 0.102 µM
TGI (LXFL 529 NSCLC): 0.236 µM
GI50 (DMS 273 small cell lung): 0.864 µM
TGI (DMS 273 small cell lung): 2.12 µM
GI50 (RXF-631 renal): 0.182 µM
TGI (RXF-631 renal): 0.324 µM
GI50 (DLD-1 colon): 0.568 µM
TGI (DLD-1 colon): > 100 µM
GI50 (DMS 114 small cell lung): 0.134 µM
TGI (DMS 114 small cell lung): 0.295 µM
GI50 (M19-MEL melanoma): 0.249 µM
TGI (M19-MEL melanoma): 1.15 µM
GI50 (HOP-18 NSCLC): 0.337 µM
TGI (HOP-18 NSCLC): 1.36 µM
GI50 (KM20L2 colon): 1.02 µM
TGI (KM20L2 colon): 2.26 µM

CC1CC2(CCC1OCc1ccccc1)OCCO2 (stereo unspecified)
TGI (LXFL 529 NSCLC): > 100 µM
TGI (DMS 273 small cell lung): > 100 µM
TGI (DLD-1 colon): > 100 µM
TGI (DMS 114 small cell lung): > 100 µM
TGI (M19-MEL melanoma): > 100 µM

O=[N+]([O-])c1ccc(N=Nc2c(O)[nH]c3ccccc23)cc1
TGI (MDA-N): > 100 µM

CC1=CC2CC(C)C1(C)CCc1ccoc12 (stereo unspecified)
TGI (LXFL 529 NSCLC): > 100 µM
TGI (DMS 273 small cell lung): > 100 µM
TGI (RXF-631 renal): > 100 µM
TGI (DLD-1 colon): > 100 µM
TGI (DMS 114 small cell lung): > 100 µM
TGI (M19-MEL melanoma): > 100 µM
TGI (HOP-18 NSCLC): > 100 µM
TGI (KM20L2 colon): > 100 µM

COC(=O)C1=Cc2c(cc(OC)c(OC)c2OC)[C@H](c2ccc(OC)c(OC)c2OC)C1C(=O)OC (stereo partly specified)
TGI (LXFL 529 NSCLC): > 100 µM
TGI (DMS 273 small cell lung): > 100 µM
TGI (RXF-631 renal): > 100 µM
TGI (DLD-1 colon): > 100 µM
TGI (DMS 114 small cell lung): > 100 µM
TGI (M19-MEL melanoma): > 100 µM
TGI (KM20L2 colon): > 100 µM

CC(C)=CC1CC(C)C2(CCC3(C)CC4C(C(=O)CC4(C)O)/C(C=O)=C\CC32)O1 (stereo unspecified)
TGI (MDA-N): 0.258 µM

Cc1c(O)c(=O)ccn1CCO
TGI (LXFL 529 NSCLC): > 100 µM
TGI (DLD-1 colon): > 100 µM
TGI (DMS 114 small cell lung): > 100 µM
TGI (M19-MEL melanoma): > 100 µM
TGI (HOP-18 NSCLC): > 100 µM
TGI (KM20L2 colon): > 100 µM

COc1ccccc1NC(=O)C1=C(C)NC(C)=C(C(=O)Nc2ccccc2OC)C1c1cccc2c1OCO2
TGI (LXFL 529 NSCLC): > 100 µM
TGI (DMS 273 small cell lung): > 100 µM
TGI (RXF-631 renal): > 100 µM
TGI (DLD-1 colon): > 100 µM
TGI (DMS 114 small cell lung): > 100 µM
TGI (M19-MEL melanoma): > 100 µM
TGI (HOP-18 NSCLC): > 100 µM
TGI (KM20L2 colon): > 100 µM

CN(C)S(=O)(=O)c1ccc(Nc2ccc(O)c3c2C(=O)c2c([N+](=O)[O-])ccc(O)c2C3=O)cc1
TGI (MDA-N): > 100 µM

CCOC(=O)C(=O)Nc1ccc(Cl)c(C(F)(F)F)c1
TGI (LXFL 529 NSCLC): > 100 µM
TGI (DMS 273 small cell lung): > 100 µM
TGI (RXF-631 renal): > 100 µM
TGI (DLD-1 colon): > 100 µM
TGI (DMS 114 small cell lung): > 100 µM
TGI (M19-MEL melanoma): > 100 µM
TGI (HOP-18 NSCLC): > 100 µM
TGI (KM20L2 colon): > 100 µM

CN1CCC(n2[nH]c(-c3ccccc3)c(Cc3ccccc3)c2=O)CC1
TGI (MDA-N): > 100 µM

CC1(C)N[P+]2(Nc3ccccc3O2)OC1=O (stereo unspecified)
TGI (MDA-N): 38.7 µM

c1cncc(CNc2ncn[nH]2)c1
TGI (MDA-N): > 100 µM
